Measurements: patent US5405859A (priority 1993, dated 1995)
Converted amounts (≈) assume the structure as drawn. Where two headings read alike, the source gives them in different places.

What was measured:
P388 cells = test: Cancer cell screen (NCI protocol), P388; settings: Mus musculus, P388, read-out: LOGIC50(W)
H460 cells = test: Cancer cell screen (NCI protocol), H460; settings: Homo sapiens, NCI-H460, read-out: LOGIC50(W)
H520 cells = test: Cancer cell screen (NCI protocol), H520; settings: Homo sapiens, NCI-H520, read-out: LOGIC50(W)
H322 cells = test: Cancer cell screen (NCI protocol), H322; settings: NCI-H322, read-out: LOGIC50(W)
LOVO cells = test: Cancer cell screen (NCI protocol), LOVO; settings: Homo sapiens, read-out: LOGIC50(W)
HT29 cells = test: Cancer cell screen (NCI protocol), HT29; settings: Homo sapiens, HT-29, read-out: LOGIC50(W)
A498 cells = test: Cancer cell screen (NCI protocol), A498; settings: Homo sapiens, A498, read-out: LOGIC50(W)
A704 cells = test: Cancer cell screen (NCI protocol), A704; settings: Homo sapiens, A704, read-out: LOGIC50(W)
HL-60 cells = test: Cancer cell screen (NCI protocol), HL-60; settings: Homo sapiens, HL-60, read-out: LOGIC50(W)
EKV-X cells = test: Cancer cell screen (NCI protocol), EKV-X; settings: Homo sapiens, EKVX, read-out: LOGIC50(W)
SW620 cells = test: Cancer cell screen (NCI protocol), SW620; settings: Homo sapiens, SW-620, read-out: LOGIC50(W)
MCF-7 cells = test: Cancer cell screen (NCI protocol), MCF-7; settings: Homo sapiens, MCF7, read-out: LOGIC50(W)
U-251 cells = test: Cancer cell screen (NCI protocol), U-251; settings: Homo sapiens, U-251, read-out: LOGIC50(W)
A2780 cells = test: Cancer cell screen (NCI protocol), A2780; settings: Homo sapiens, A2780, read-out: LOGIC50(W)
UO-31 cells = test: Cancer cell screen (NCI protocol), UO-31; settings: Homo sapiens, UO-31, read-out: LOGIC50(W)
MOLT-4 cells = test: Cancer cell screen (NCI protocol), MOLT-4; settings: Homo sapiens, MOLT-4, read-out: LOGIC50(W)
TE-671 cells = test: Cancer cell screen (NCI protocol), TE-671; settings: Homo sapiens, TE-671, read-out: LOGIC50(W)
SNB-19 cells = test: Cancer cell screen (NCI protocol), SNB-19; settings: Homo sapiens, SNB-19, read-out: LOGIC50(W)
SNB-75 cells = test: Cancer cell screen (NCI protocol), SNB-75; settings: Homo sapiens, SNB-75, read-out: LOGIC50(W)
P388/AD cells = test: Cancer cell screen (NCI protocol), P388/AD; settings: Mus musculus, P388, read-out: LOGIC50(W)
SK-MES1 cells = test: Cancer cell screen (NCI protocol), SK-MES1; settings: Homo sapiens, SK-MES-1, read-out: LOGIC50(W)
MCF-7/A cells = test: Cancer cell screen (NCI protocol), MCF-7/A; settings: MCF7a, read-out: LOGIC50(W)
SK-MEL5 cells = test: Cancer cell screen (NCI protocol), SK-MEL5; settings: Homo sapiens, SK-MEL-5, read-out: LOGIC50(W)
OVCAR-8 cells = test: Cancer cell screen (NCI protocol), OVCAR-8; settings: Homo sapiens, OVCAR-8, read-out: LOGIC50(W)
OVCAR-5 cells = test: Cancer cell screen (NCI protocol), OVCAR-5; settings: Homo sapiens, OVCAR-5, read-out: LOGIC50(W)
OVCAR-4 cells = test: Cancer cell screen (NCI protocol), OVCAR-4; settings: Homo sapiens, OVCAR-4, read-out: LOGIC50(W)
SN-12KI cells = test: Cancer cell screen (NCI protocol), SN-12KI; settings: read-out: LOGIC50(W)
[1] = tested on: standard group of cancer cells; test: Screen against standard group of cancer cells, whole panel; settings: for .DELTA / .RANGE: log IC50, cell panel; for IC50: read-out: .AV.LOG IC50; for relative activity: review of Tables IV-VI
[2] = Initial screening, relative activities of the patellazoles
HSV-1 = test: Antiviral testing, HSV-1; type: cell-based, herpes virus HSV-1; settings: for HSV-L (antiviral concentration): Vero host cells, kind of endpoint not given; for activity against herpes virus HSV-1: at concentrations not toxic for host cells (Vero)
Source text: (§1) Substantially pure compounds of Patellazole B and C were screened for activity. These extracts from a marine tunicate (L. patella) were submitted for antiviral testing.

HSV-2 = test: Antiviral testing, HSV-2; type: cell-based, herpes virus HSV-2; settings: for HSV-2 (antiviral concentration): Vero host cells, kind of endpoint not given; for activity against herpes virus HSV-2: at concentrations not toxic for host cells (Vero)
Source text: as §1

VERO = test: Cytotoxicity in Vero host cells; type: cell-based; settings: for Cytotoxicity Vero: Vero cells, kind of endpoint not given; for toxicity for the host cells: Vero, at concentrations active against HSV-1 and HSV-2
Source text: as §1

LOX cells = test: Cancer cell screen (NCI protocol), LOX; settings: read-out: LOGIC50(W)
A549 cells = test: Cancer cell screen (NCI protocol), A549; settings: Homo sapiens, A549, read-out: LOGIC50(W)
SNB-44 cells = test: Cancer cell screen (NCI protocol), SNB-44; settings: SNB44, read-out: LOGIC50(W)
A322 cells = test: Cancer cell screen (NCI protocol), A322; settings: read-out: LOGIC50(W)
[3] = Patellazole B versus Patellazole C

| Structure (SMILES) | IC50 (P388 cells) [ng/mL] | IC50 (H460 cells) [ng/mL] | IC50 (LOVO cells) [ng/mL] | IC50 (HT29 cells) [ng/mL] | IC50 (A498 cells) [ng/mL] | IC50 (A704 cells) [ng/mL] | IC50 (EKV-X cells) [ng/mL] | IC50 (U-251 cells) [ng/mL] | IC50 (A2780 cells) [ng/mL] | IC50 (MOLT-4 cells) [ng/mL] | IC50 (TE-671 cells) [ng/mL] | IC50 (SNB-19 cells) [ng/mL] | IC50 (SNB-75 cells) [ng/mL] | IC50 (SK-MES1 cells) [ng/mL] | IC50 (MCF-7/A cells) [ng/mL] | IC50 (SK-MEL5 cells) [ng/mL] | IC50 (OVCAR-5 cells) [ng/mL] | IC50 (OVCAR-4 cells) [ng/mL] | IC50 (SN-12KI cells) [ng/mL] | .DELTA [1] | further results |
| --- | --- | --- | --- | --- | --- | --- | --- | --- | --- | --- | --- | --- | --- | --- | --- | --- | --- | --- | --- | --- | --- |
| CCC(C)C(=O)OC1(C)CCC(C)CC(O)C(C)C(=O)C(C)/C=C\CC(C)C(O)C(O)C(OC)/C(C)=C/C=C/C(C)C(C(C)(O)/C=C(/C)Cc2csc(C3(C)OC3C)n2)OC1=O (centres unmarked) [Patellazole A] | 0.1 (≈ 0.113 nM) | 0.0398 (≈ 0.0448 nM) | 0.0794 (≈ 0.0894 nM) | < 0.0316 | 0.0631 (≈ 0.071 nM) | 0.1 (≈ 0.113 nM) | 0.0794 (≈ 0.0894 nM) | < 0.0316 | 0.0398 (≈ 0.0448 nM) | 0.0794 (≈ 0.0894 nM) | < 0.0316 | 0.0794 (≈ 0.0894 nM) | 6.31 (≈ 7.1 nM) | < 0.0316 | 0.501 (≈ 0.564 nM) | 0.158 (≈ 0.178 nM) | 0.0501 (≈ 0.0564 nM) | 0.1 (≈ 0.113 nM) | < 0.0316 | 0.5 | IC50 (H520 cells): 0.794 ng/mL (≈ 0.894 nM); IC50 (H322 cells): 0.126 ng/mL (≈ 0.142 nM); IC50 (HL-60 cells): 0.126 ng/mL (≈ 0.142 nM); IC50 (SW620 cells): 0.1 ng/mL (≈ 0.113 nM); IC50 (MCF-7 cells): 0.126 ng/mL (≈ 0.142 nM); IC50 (UO-31 cells): 0.126 ng/mL (≈ 0.142 nM); IC50 (P388/AD cells): 0.126 ng/mL (≈ 0.142 nM); IC50 (OVCAR-8 cells): 0.1 ng/mL (≈ 0.113 nM); .RANGE [1]: 2.3; IC50 [1]: 0.0977 ng/mL (≈ 0.11 nM); relative activity [1]: slightly more active than Patellazole B; relative activities of the patellazoles [2]: A>B>C |
| COC1/C(C)=C/C=C/C(C)C(C(C)(O)/C=C(/C)Cc2csc(C3(C)OC3C)n2)OC(=O)C(C)(OC(=O)C(C)C(C)O)CCC(C)CC(O)C(C)C(=O)C(C)/C=C\CC(C)C(O)C1O (centres unmarked) [Patellazole B] | < 0.0316 | < 0.0316 | < 0.0316 | < 0.0316 | < 0.0316 | < 0.0316 | < 0.0316 | < 0.0316 | < 0.0316 | < 0.0316 | < 0.0316 | < 0.0316 | < 0.0316 | < 0.0316 | < 0.0316 | < 0.0316 | < 0.0316 | < 0.0316 | < 0.0316 | 0 | relative antiviral activity against HSV-1 (HSV-1; [3]): significantly more potent; HSV-L (antiviral concentration) (HSV-1): 0.0005 µg/mL; activity against herpes virus HSV-1 (HSV-1): showed activity; relative antiviral activity against HSV-2 (HSV-2; [3]): significantly more potent; HSV-2 (antiviral concentration) (HSV-2): 0.06 µg/mL; activity against herpes virus HSV-2 (HSV-2): showed activity; Cytotoxicity Vero (VERO): 0.75 µg/mL; toxicity for the host cells (VERO): not toxic; IC50 (LOX cells): < 0.0316 ng/mL; IC50 (H322 cells): < 0.0316 ng/mL; IC50 (A549 cells): < 0.0316 ng/mL; IC50 (SW620 cells): < 0.0316 ng/mL; IC50 (MCF-7 cells): < 0.0316 ng/mL; IC50 (UO-31 cells): < 0.0316 ng/mL; IC50 (SNB-44 cells): < 0.0316 ng/mL; IC50 (P388/AD cells): < 0.0316 ng/mL; .RANGE [1]: 0; IC50 [1]: 0.0316 ng/mL (≈ 0.035 nM); relative activity [1]: significantly more active than Patellazole C; relative activities of the patellazoles [2]: A>B>C |
| COC1/C(C)=C/C=C/C(C)C(C(C)(O)/C=C(/C)Cc2csc(C3(C)OC3C)n2)OC(=O)C(C)(OC(=O)C(C)C(C)O)CCC(C)CC(O)C(C)C(=O)C(CO)/C=C\CC(C)C(O)C1O (centres unmarked) [Patellazole C] | 12.6 (≈ 13.7 nM) | 7.94 (≈ 8.63 nM) | 6.31 (≈ 6.86 nM) | 1 (≈ 1.09 nM) | 10 (≈ 10.9 nM) | 79.4 (≈ 86.3 nM) | 10 (≈ 10.9 nM) | 7.94 (≈ 8.63 nM) | 5.01 (≈ 5.45 nM) | 7.94 (≈ 8.63 nM) | 7.94 (≈ 8.63 nM) | 10 (≈ 10.9 nM) | > 31.6 | 7.94 (≈ 8.63 nM) | > 316 | 12.6 (≈ 13.7 nM) | 2.51 (≈ 2.73 nM) | 7.94 (≈ 8.63 nM) | 10 (≈ 10.9 nM) | 1.1 | HSV-L (antiviral concentration) (HSV-1): 0.30 µg/mL; activity against herpes virus HSV-1 (HSV-1): showed activity; HSV-2 (antiviral concentration) (HSV-2): 0.80 µg/mL; activity against herpes virus HSV-2 (HSV-2): showed activity; Cytotoxicity Vero (VERO): 4.0 µg/mL; toxicity for the host cells (VERO): not toxic; IC50 (A322 cells): 7.94 ng/mL (≈ 8.63 nM); IC50 (OVCAR-8 cells): 10 ng/mL (≈ 10.9 nM); .RANGE [1]: 2.5; IC50 [1]: 10.2 ng/mL (≈ 11.1 nM); relative activities of the patellazoles [2]: generally less active; relative activities of the patellazoles ([2]; listed as C): A>B>C |
